Measurements taken from the supplement of paper PMC4237247.

Tests used:
[1] = tested on: HeLa; assay: maximal percent of cells arrested in mitosis within titration; higher = stronger mitotic arrest; settings: 20 h
Procedure: (§1)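 HeLa cells were treated with a titration of each re-synthesised mitotic inhibitor. Mitotic arrest IC50 comes from a 20 h titration (190 pM to 10 uM) read as % G2/M by Vybrant DyeCycle Green cell cycle profiling on an Acumen cytometer. Cell viability IC50 comes from a 72 h titration (12.2 nM to 100 uM) read by CellTiter-Glo ATP luminescence, with curves fitted in CDD software. The maximal % of cells arrested in mitosis within the titration is also reported.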

[2] = tested on: HeLa; assay: mitotic arrest IC50 (G2/M DNA content, 20 h); higher = less potent
Procedure: as §1

[3] = tested on: HeLa; assay: cell viability IC50 (CellTiter-Glo, 72 h); higher = less potent
Procedure: as §1

Row | Structure (SMILES) | mitotic arrest IC50 [2] | cell viability IC50 [3] | maximal percent [1]
1 | CCN(CC)CCN1C(=O)C(=O)C(=C(O)c2ccccc2)C1c1ccccc1F (stereo not drawn) | 4780 nM | 6630 nM | 55.8%
2 | COc1cc(-c2onc3ccc(Cl)cc23)cc(OC)c1OC | 539 nM | 470 nM | 54.8%
3 | CC(=O)O[C@H]1C(=O)[C@@]2(C)[C@H]([C@H](OC(=O)c3ccccc3)[C@]3(O)C[C@H](OC(=O)[C@H](O)[C@@H](NC(=O)c4ccccc4)c4ccccc4)C(C)=C1C3(C)C)[C@]1(OC(C)=O)CO[C@@H]1C[C@@H]2O [Taxol] | 37.1 nM | 27.3 nM | 74%
4 | O=C(O)c1ccccc1SC1CC(=O)N(c2ccc(Br)cc2)C1=O (stereo not drawn) | 2650 nM | 2270 nM | 70.4%
5 | O=C(CSc1nc2ccc([N+](=O)[O-])cc2s1)c1ccc(Cl)cc1 | 9120 nM | 12500 nM | 61.7%

Second part, led by results:

Row | mitotic arrest IC50 [2] | cell viability IC50 [3] | Structure (SMILES) | maximal percent [1]
6 | 88.5 nM | 121 nM | CC(=O)Nc1ccc(Nc2nc(-c3c(C)nc4ccccn34)cs2)cc1 | 65.3%
7 | 202 nM | 222 nM | COC(=O)Nc1nc2cc(C(=O)c3ccccc3)ccc2[nH]1 [Mebendazole] | 76.6%
8 | 279 nM | 389 nM | COC(=O)Nc1nc2cc(Sc3ccccc3)ccc2[nH]1 [Fenbendazole] | 62.5%
9 | 129 nM | 45.6 nM | COC(=O)Nc1nc2cc(C(=O)c3cccs3)ccc2[nH]1 [Nocodazole] | 68.5%
10 | 1350 nM | 1160 nM | O=c1[nH]c(/C=C/c2ccccc2)nc2ccccc12 | 61%
11 | 285 nM | 720 nM | O=c1[nH]c(/C=C/c2ccccc2F)nc2ccccc12 | 49.9%
